# Publication PMC5638327, “Comparison of bioavailability and antiplatelet action of ticagrelor in patients with ST-elevation myocardial infarction and non-ST-elevation myocardial infarction: A prospective, observational, single-centre study” (PLoS ONE, 2017)
# Legend:
# [1] = system: platelet reactivity; test: Platelet reactivity by Multiplate (multiple electrode aggregometry) after ticagrelor loading dose; assay type: in vivo, human (patients with myocardial infarction); conditions: median [interquartile range]; for time to achieve platelet inhibition below the cut-off value for HPR (Multiplate): HPR = AUC >46 U
# Experimental: Consecutive STEMI and NSTEMI patients admitted to the study site (Cardiology Department, Dr. A. Jurasz University Hospital, Bydgoszcz, Poland) were screened for eligibility. After admission to the study centre, confirmation of the initial diagnosis of STEMI or NSTEMI, and provision of a written informed consent to participate in the trial, all study participants received an oral 300 mg LD of plain aspirin (Polpharma SA, Starogard Gdański, Poland) and 180 mg LD ticagrelor in integral tablets with 250 mL tap water. Subsequently, within 15 minutes of ticagrelor LD, all patients underwent coronary angiography followed by PCI as required. During the periprocedural period, all study participants received unfractionated heparin in body weight adjusted dose according to the European Society of Cardiology (ESC) recommendations. Plasma concentrations of ticagrelor and its active metabolite, as well as their antiplatelet effect, were evaluated according to the sampling schedule employed at our centre in previous PK/PD study (pre-treatment, 0.5 h, 1 h, 2 h, 3 h, 4 h, 6 h and 12 h post ticagrelor LD).
# Blood samples for PK/PD evaluation were obtained from an 18-gauge cannula inserted into one of the forearm veins. The first 5 mL blood was discarded to avoid spontaneous platelet activation. In each patient specimens were collected at the eight pre-defined time. Detailed description of blood sample processing has been published in the study protocol (S1 File).
# Platelet reactivity was assessed using VASP and Multiplate. The VASP assay (Biocytex, Inc., Marseille, France) was used in all study participants, while Multiplate (Roche Diagnostics International Ltd., Rotkreuz, Switzerland) was used in all except in those treated with glycoprotein (GP) IIb/IIIa receptor inhibitors. Pharmacodynamic evaluation was performed according to the manufacturers' instructions. HPR was defined as platelet reactivity index >50% for the VASP assay and AUC >46 units (U) for Multiplate. […]
# Table 1 Inclusion and exclusion criteria of the PINPOINT study
# Inclusion criteria Exclusion criteria
# ▸ Provision of informed consent prior to any ▸ Treatment with ticlopidine, clopidogrel, prasugrel or ticagrelor within study-specific procedure 14 days before the study enrolment
# ▸ Diagnosis of STEMI or NSTEMI ▸ Hypersensitivity to ticagrelor
# ▸ Men or non-pregnant women ▸ Current treatment with oral anticoagulant or chronic therapy with low-molecular-weight heparin
# ▸ Provision of informed consent for angiography ▸ Active bleeding […]
# ▸ History of intracranial haemorrhage
# ▸ Fibrinolytic treatment during the index event
# ▸ Recent gastrointestinal bleeding (within 30 days)
# ▸ History of coagulation disorders
# ▸ History of moderate or severe hepatic impairment
# ▸ History of major surgery or severe trauma (within 3 months)
# ▸ Second or third degree atrioventricular block during screening for […]
# ▸ Patient requiring dialysis
# ▸ Manifest infection or inflammatory state
# ▸ Killip class III or IV during screening for eligibility
# ▸ Current therapy with strong CYP3A inhibitors or strong CYP3A […]
# NSTEMI, non-ST-elevation myocardial infarction; PCI, percutaneous coronary intervention; STEMI, ST-elevation myocardial infarction. […]
# MEA (Roche Diagnostics International, Rotkreuz, staff and the attending physician. The type of implanted Switzerland) will be used at all predeﬁned time points stent and choice of the access site for coronary invasive ( ﬁgure 1) for all study participants with the exception of procedure (radial or femoral ) will be at the discretion of those treated with glycoprotein IIb/IIIa (GP IIb/IIIa) the operator. During the periprocedural period, all study receptor inhibitors as this therapy may affect the results participants will receive unfractionated heparin in body of platelet reactivity assessment per formed with MEA weight adjusted dose according to the ESC recommenda-( ﬁgure 2). Pharmacodynamic assessment with VASP and tions.2336Administration of GP IIb/IIIa receptor in- […]
# [2] = Adverse events during the observation period (12 hours after ticagrelor LD); assay type: in vivo, human (patients with myocardial infarction)
# Source text: Between November 2015 and January 2017, a total of 73 consecutive AMI patients (49 STEMI and 24 NSTEMI) were enrolled. The recruitment continued until the minimum required number of patients were enrolled in the less numerous group (NSTEMI). There were no differences in the baseline characteristics between the two groups, except higher mean left ventricle ejection fraction seen in NSTEMI patients at discharge (Table 1). Of note, as expected numerically greater proportion of STEMI patients were treated with morphine, but this difference was statistically insignificant. Adverse events during the observation period (12 hours after ticagrelor LD) were sporadic and mild (STEMI vs. NSTEMI: Thrombolysis in Myocardial Infarction minimal bleeding 6.1% vs. 8.3%, p = 0.92; dyspnea 2.0% vs. 4.2%, p = 0.83; vomiting 4.1% vs. 4.2%, p = 0.56). […]
# Ludwika Rydygiera w Bydgoszczy (study
# PLATO trial, deﬁnite or probable stent thrombosis approval reference number: KB 617/2015). […]
# Thrombolysis In Myocardial Infarction (TIMI) criteria, still being collected, currently no additional data are available besides given in dyspnoea adverse events according to criteria used in the submitted study protocol. […]
# Postepy […]
# trial is expected to be the ﬁrst study to elucidateKardiol Interwencyjnej 2015;11:259–80. whether STEMI is associated with poorer absorption and 8. Navarese EP, Buffon A, Kozinski M, et al. A critical overview on ticagrelor in acute coronary syndromes. QJM 2013;106:105–15. subsequently weaker antiplatelet action of ticagrelor in 9. Adamski P, Koziński M, Ostrowska M, et al. Overview of pleiotropic comparison with NSTEMI. effects of platelet P2Y12 receptor inhibitors. Thromb Haemost […]
# 1Department of Principles of Clinical Medicine, Collegium Medicum, Nicolaus Drug Metab Dispos 2010;38:1514–21.
# Copernicus University, Bydgoszcz, Poland 11. Husted S, Emanuelsson H, Heptinstall S, et al. Pharmacodynamics, 2Department of Pharmacology and Therapy, Collegium Medicum, Nicolaus pharmacokinetics, and safety of the oral reversible P2Y12 antagonist AZD6140 with aspirin in patients with atherosclerosis: a double-blind
# Copernicus University, Bydgoszcz, Poland comparison to clopidogrel with aspirin. Eur Heart J 3Department of Cardiology and Internal Medicine, Collegium Medicum, 2006;27:1038–47.
# Nicolaus Copernicus University, Bydgoszcz, Poland 12. Varenhorst C, Eriksson N, Johansson Å, et al. Effect of genetic 4Department of Theoretical Foundations of Biomedical Science and Medical variations on ticagrelor plasma levels and clinical outcomes.
# Informatics, Collegium Medicum, Nicolaus Copernicus University, Bydgoszcz, Eur Heart J 2015;36:1901–12.
# Poland 13. Teng R, Mitchell P, Butler K. Effect of age and gender on 5Department of Laboratory Medicine, Collegium Medicum, Nicolaus pharmacokinetics and pharmacodynamics of a single ticagrelor dose in healthy individuals. Eur J Clin Pharmacol 2012;68:1175–82.
# Copernicus University, Bydgoszcz, Poland 14. Teng R, Mitchell PD, Butler K. Lack of significant food effect on the 6Department of Medicinal Chemistry, Collegium Medicum, Nicolaus pharmacokinetics of ticagrelor in healthy volunteers. J Clin Pharm Copernicus University, Bydgoszcz, Poland Ther 2012;37:4648.– […]
structure (smiles),measurement,setting,value
CCCSc1nc(N[C@@H]2C[C@H]2c2ccc(F)c(F)c2)c2nnn([C@@H]3C[C@H](OCCO)[C@@H](O)[C@H]3O)c2n1 [ticagrelor],Platelet reactivity (Multiplate),"[1]; NSTEMI, 0.5 h after 180 mg ticagrelor LD",49.0 [21.0–86.0] U
same,Platelet reactivity (Multiplate),"[1]; NSTEMI, 2 h after 180 mg ticagrelor LD",18.0 [10.0–31.0] U
same,time to achieve platelet inhibition below the cut-off value for HPR (Multiplate),[1]; NSTEMI,0.5 [0.5–2.0] h
same,Platelet reactivity (Multiplate),"[1]; STEMI, 0.5 h after 180 mg ticagrelor LD",88.0 [51.5–103.5] U
same,Platelet reactivity (Multiplate),"[1]; STEMI, 2 h after 180 mg ticagrelor LD",36.0 [22.0–52.5] U
same,time to achieve platelet inhibition below the cut-off value for HPR (Multiplate),[1]; STEMI,2.0 [0.5–3.0] h
same,Thrombolysis in Myocardial Infarction minimal bleeding,[2]; NSTEMI patients,8.3%
same,dyspnea,[2]; NSTEMI patients,4.2%
same,vomiting,[2]; NSTEMI patients,4.2%
same,Thrombolysis in Myocardial Infarction minimal bleeding,[2]; STEMI patients,6.1%
same,dyspnea,[2]; STEMI patients,2.0%
same,vomiting,[2]; STEMI patients,4.1%
